Several values for one entry are separate records, joined by “and”; a condition that tells them apart may be missing. Equal values may be shown once. Read-outs that look alike come from different tables or passages of the source.
Key:
[1] = humans; cited from earlier work
CYP1A2 [2] = conditions: cited from earlier work
[3] = Pharmacokinetics of caffeine alone and with pinocembrin in rats; format: in vivo; conditions: male, Wistar, rat, plasma, po, 15 mg/kg
[4] = format: in vivo, Wistar rats; conditions: male, Wistar, rat, plasma, po, 4 mg/kg; for AUC(0-t): AUC0–t, tacrine 4 mg/kg oral alone (group III); for half-life: T1/2, tacrine 4 mg/kg oral alone (group III)
CYP1A2 [5] = molecular target: T1, CYP1A2 (Homo sapiens, UniProt P05177); conditions: HLM; cited from earlier work
T1 sequence (P05177 1-516): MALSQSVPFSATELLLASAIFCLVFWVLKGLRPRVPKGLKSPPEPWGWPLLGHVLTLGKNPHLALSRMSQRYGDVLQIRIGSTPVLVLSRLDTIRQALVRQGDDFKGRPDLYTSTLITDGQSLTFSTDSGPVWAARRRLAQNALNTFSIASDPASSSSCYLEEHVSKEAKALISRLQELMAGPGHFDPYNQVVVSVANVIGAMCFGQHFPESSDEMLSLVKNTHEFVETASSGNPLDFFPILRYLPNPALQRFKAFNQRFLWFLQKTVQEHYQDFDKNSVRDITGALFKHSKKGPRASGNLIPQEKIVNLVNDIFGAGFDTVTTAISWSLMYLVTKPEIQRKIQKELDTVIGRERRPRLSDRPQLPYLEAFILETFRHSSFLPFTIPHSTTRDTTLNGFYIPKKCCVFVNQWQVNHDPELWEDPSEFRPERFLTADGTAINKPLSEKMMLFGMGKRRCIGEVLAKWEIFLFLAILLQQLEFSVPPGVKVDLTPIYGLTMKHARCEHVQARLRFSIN

CYP1A2 [6] = molecular target: T1, CYP1A2; conditions: read-out: IC50 for CYP1A2-mediated phenacetin O-deethylation in HLM; cited from earlier work
[7] = humans; cited from earlier work; remark: listed apart in the source
CYP1A2 [8] = molecular target: T1, CYP1A2; conditions: cited from earlier work
CYP1A2 [9] = molecular target: T1, CYP1A2; conditions: HLM 0.3 mg/mL, phenacetin 1–1500 μM, 30 min
CYP1A2 [10] = molecular target: T2, CYP1A2 (Rattus norvegicus, UniProt P04799); conditions: read-out: IC50 for CYP1A2 in RLM; cited from earlier work
T2 sequence (P04799 1-513): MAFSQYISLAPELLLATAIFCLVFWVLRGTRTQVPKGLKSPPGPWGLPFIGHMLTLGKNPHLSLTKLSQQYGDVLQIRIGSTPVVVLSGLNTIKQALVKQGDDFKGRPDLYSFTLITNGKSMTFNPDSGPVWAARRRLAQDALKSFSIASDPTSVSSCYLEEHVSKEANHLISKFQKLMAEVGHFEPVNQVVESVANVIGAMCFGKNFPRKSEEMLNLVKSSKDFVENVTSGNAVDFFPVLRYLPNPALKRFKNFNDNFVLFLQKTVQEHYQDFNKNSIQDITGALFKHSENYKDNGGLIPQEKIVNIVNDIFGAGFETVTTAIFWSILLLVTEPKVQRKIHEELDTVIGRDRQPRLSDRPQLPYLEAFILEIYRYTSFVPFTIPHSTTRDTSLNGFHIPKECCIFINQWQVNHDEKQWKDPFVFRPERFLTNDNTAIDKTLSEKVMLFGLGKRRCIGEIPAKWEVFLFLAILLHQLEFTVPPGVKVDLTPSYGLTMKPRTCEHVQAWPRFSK

[11] = Liver distribution of pinocembrin after intravenous dosing in rats; format: in vivo; conditions: male, Wistar, rat, 10 mg/kg
CYP1A2 [12] = molecular target: T2, CYP1A2; test: CYP1A2-catalyzed phenacetin O-deethylation in RLM; format: in vitro ADME
CYP2C19 = conditions: read-out: IC50 for CYP2C19 inhibition; cited from earlier work
[13] = Stability of pinocembrin in RLM; format: in vitro ADME, rat; conditions: protocol as for HLM
[14] = Stability of pinocembrin in HLM; format: in vitro ADME, human; conditions: pinocembrin 5 μM, HLM 0.3 mg/mL, 0-30 min, 37 °C
CYP3A4 = conditions: read-out: IC50 for CYP3A4 inhibition; cited from earlier work
CYP2C9 = conditions: read-out: IC50 for CYP2C9 inhibition; cited from earlier work

SMILES: c1ccc2[nH]c(-c3cscn3)nc2c1 [thiabendazole]
- enhancement in the plasma level of caffeine [1]: 1.6 fold

SMILES: Cn1c(=O)c2c(ncn2C)n(C)c1=O [caffeine]
- portion of the drug metabolized by CYP1A2 (CYP1A2 [2]): > 95%
- AUC(0-t) ([3]; AUC0–t, caffeine 15 mg/kg oral alone (group I)): 2840 ± 141 ng·h/mL
- half-life ([3]; T1/2, caffeine 15 mg/kg oral alone (group I)): 1.1 ± 0.1 h

SMILES: Nc1c2c(nc3ccccc13)CCCC2 [tacrine]
- contribution of CYP1A2 to metabolism (CYP1A2 [2]): > 90%
- AUC(0-t) [4]: 142 ± 13 ng·h/mL
- half-life [4]: 1.7 ± 0.2 h

SMILES: O=c1cc(-c2ccc(O)c(O)c2)oc2cc(O)cc(O)c12 [Luteolin]
- type of CYP1A2 inhibition (CYP1A2 [5]): competitively

SMILES: Nc1c2c(nc3ccccc13)CCCC2O (stereo not drawn) [hydroxytacrine, 1-hydroxytacrine]
- AUC(0-t) [4]: 907 ± 129 ng·h/mL
- half-life [4]: 1.5 ± 0.3 h

SMILES: CS(=O)(=O)c1ccc(C2=C(c3ccccc3)C(=O)OC2)cc1 [Rofecoxib]
- IC50 (CYP1A2 [6]): 4.2 µM
- increase in plasma concentration of the CYP1A2 substrate tizanidine [7]: 13.6 fold

SMILES: CC(C)C1=Cc2ccc3c(c2C(=O)C1=O)CCCC3(C)C [miltirone]
- type of CYP1A2 inhibition (CYP1A2 [8]; kinetic analysis): mixed-type
- IC50 (CYP1A2 [8]; read-out: IC50 for CYP1A2 in HLM, HLM): 1.73 µM

SMILES: CCOc1ccc(NC(C)=O)cc1 [phenacetin]
- maximum velocity of the uninhibited reaction (Vmax) for CYP1A2-catalyzed phenacetin O-deethylation (CYP1A2 [9]): 1584 ± 12 pmol/min/mg of protein

SMILES: Cc1nc2c([nH]1)c(=O)n(C)c(=O)n2Cc1ccco1 [furafylline]
- IC50 (CYP1A2 [10]): 20.8 µM

SMILES: O=C1C[C@@H](c2ccccc2)Oc2cc(O)cc(O)c21 [pinocembrin]
- Kp ([11]; liver and plasma): 1.8 to 3.8
- concentration at 5 min ([11]; liver): 3680 ng/g
- concentration at 15 min ([11]; liver): 2380 ng/g
- concentration at 5 min ([11]; plasma): 2030 ng/mL and 7.9 µM
- concentration at 15 min ([11]; plasma): 621 ng/mL
- IC50 (CYP1A2 [12]): 3.11 ± 0.09 µM
- IC50 (CYP2C19): 22 µM
- Stability of pinocembrin in RLM (amount remaining vs 0 min) [13]: stable
- Stability of pinocembrin in HLM (amount remaining vs 0 min) [14]: stable
- IC50 (CYP3A4): 28 µM
- IC50 (CYP2C9): 13 µM
